PMC9167309, “Multiple-reaction monitoring (MRM) LC–MS/MS quantitation of venlafaxine and its O-desmethyl metabolite for a preclinical pharmacokinetic study in rabbits” (Scientific Reports, 2022)

What was measured:
dopamine reuptake = tested on: dopamine reuptake; set-up: method as in doi:10.2165/00023210-200014060-00006; conditions: cited from earlier work
noradrenaline reuptake = tested on: noradrenaline reuptake; set-up: method as in doi:10.2165/00023210-200014060-00006; conditions: cited from earlier work
[1] = Preclinical PK study: plasma VEN and ODV after a single oral dose of ER formulations, LC-MRM-MS/MS, noncompartmental analysis; format: in vivo, New Zealand White rabbits; conditions: throughout the sampling period (36 h); after oral optimized ER tablet and RLD; above LOQ
Protocol: Four pairs (male/female) of healthy rabbits, each weighing 3–4 kg, were provided by Government Rabbit Farm, Wussan (Pattan), Kashmir. The rabbits were divided into a reference group and a test group. […] The resulting plasma samples were frozen at − 40 °C until further analysis.
The PK evaluation summarized in Table 11 was carried out by way of noncompartmental analysis (NCA) using WinNonlin 8.1 and the additional statistical computations were performed in SAS 9.4. […] The statistical assurance of bioequivalent similarity given in Table 12 was computed using analysis of variance on log-transformed PK parameters (Cmax, AUClast, and AUCINF_obs) of reference and test product.

serotonin reuptake = conditions: cited from earlier work

Row | Compound | inhibition of dopamine reuptake (dopamine reuptake) | inhibition of noradrenaline reuptake (noradrenaline reuptake) | plasma concentrations [1] [ng/mL] | inhibition of serotonin reuptake (serotonin reuptake)
1 | COc1ccc(C(CN(C)C)C2(O)CCCCC2)cc1 (racemic) [VEN, (RS) 1-[2-(dimethylamino)-1-(4-methoxyphenyl)ethyl]cyclohexanol] | weakly inhibit | potent inhibitors | > 0.5 | 
2 | CN(C)CC(c1ccc(O)cc1)C1(O)CCCCC1 (stereo not shown) [ODV, O-desmethylvenlafaxine] | weakly inhibit | potent inhibitors | > 0.5 | potent inhibitors
